Assay results: patent publication US20080254993A1, “Use of abscisic acid analogs to enhance growth control” (priority 2007, published 2008)

What was measured:
tomato = experiment: Tomato plant height, growth rate and leaf number, greenhouse (Example 5); assay type: in vivo, Tomato (variety: Rutgers)
Description: The effect of ABA analog (PBI-429) and trinexapac-ethyl combinations on transpiration and growth inhibition of dicotyledonous (tomato) was also examined in the greenhouse condition. Tomato (variety: Rutgers) seeds were sown in 18-cell flat filled with Promix PGX (available from Premier Horticulture Inc. Quakertown, Pa.) and grown for 3 weeks to allow for germination and initial growth. Plants were then transplanted into pots (18 cm in diameter and 18 cm in height), filled with Promix BX (available from Premier Horticulture Inc. Quakertown, Pa.), and grown for one week before the chemical treatment. Plants received daily irrigation and weekly fertilizer (1 g/L all purpose fertilizer 20-20-20, available from The Scotts Company, Marysville, Ohio). During the chemical treatment, a 24 mL (4 mL/plant) solution was foliar sprayed on the tomato canopy. Leaf transpiration rates were measured using a LI-1600 Steady State Porometer (LI-Cor, Lincoln, Nebr.) at 3, 5, 7, 10, and 14 days after treatment. The leaf transpiration rate was normalized to the percentage of control plant to minimize the experimental errors caused by environmental factors. Plant height was measured at 0, 3, 5, 7, 10 and 14 days after treatment. The growth rate was calculated based on the changes of plant height in certain intervals. The plants were harvested and the leaf number was counted at 14 days after treatment.

creeping bentgrass = experiment: Golf course green field study on creeping bentgrass with PBI-429: turfgrass height, soil moisture, turf quality (Example 2); assay type: in vivo, Penncross creeping bentgrass; settings: for Soil moisture / Turfgrass height / Turf quality: 25 ppm trinexapac-ethyl alone; for Turfgrass height (in words) / Soil moisture (in words): trinexapac-ethyl 25 ppm, PBI-429 50 ppm, alone or combined; for Turf quality: visual 0-9 scale, 9 best
Procedure: Field studies were conducted at the nursery green or the practice green at Countryside golf course (Mundelein, Ill.). Both greens were sand based and growing Penncross creeping bentgrass. Grass was managed with typical Illinois golf course management practices.
(§1) Chemical solutions were prepared with distilled water. Tween 20 (0.05% v/v) was used as the surfactant when necessary. Trinexapac-ethyl (commercial product Primo Maxx, 11.3% active ingredient) was purchased from Syngenta Crop Protection Inc. (Greensboro, N.C.). ABA analogs, 8′ acetylene-ABA, acid (PBI-524), 8′ acetylene-ABA, ester (PBI-429), 8′ cyclopropane ester (PBI-696), or Tetralone, first carbon tail acetylene, ester (PBI-702), were obtained from Plant Biotechnology Institute, National Research Council of Canada (Saskatoon, Saskatchewan, Canada).
(§2) Chemical solutions were foliar applied to the turfgrass canopy at the rate of 4-gallons/1000 square foot (or 0.163 L/m^−2) immediately after finishing the preparation of solutions. After treatment, turfgrasses were arranged in a randomized complete block experimental design. Turfgrass quality, turfgrass height or clip fresh weight was measured on assigned dates. Turfgrass quality was visually rated on a 0-9 scale based on the color, uniformity, and density of the grass with 0 as the worst and 9 as the best. Turfgrass height was measured as the distance between canopy surface and soil. Clippings were collected form each plot; all plots were cut to a uniform height.
(§3) All experiments were randomized complete block experimental design. Data were analyzed by analysis of variance. Duncan's new multiple range tests at α=0.05 were used for mean separations.
Trinexapac-ethyl (25 ppm) or PBI-429 (50 ppm) were one time foliar applied alone or in combination to creeping bentgrass in the golf course green to investigate their effect on turfgrass quality, growth inhibition and soil moisture.

Kentucky bluegrass = experiment: Greenhouse study on Kentucky bluegrass: turfgrass height, clip weight, turfgrass quality (Example 1); assay type: in vivo
Procedure: Greenhouse studies were conducted at the Research Farm of Valent BioSciences Corporation (Long Grove, Ill.). Grasses were grown in pots (18 cm in diameter and 18 cm in height) filled with Promix BX (available from Premier Horticulture Inc. Quakertown, Pa.). Grass was irrigated daily by an overhead irrigation system. The irrigation system was set up with multiple Tornado Mist Spray Heads (10 GPH at 40 PSI-Wetted diameter, NDS/Raindrip, Woodland Hills, Calif.). Spray heads were 1-meter apart from each other and 75 cm above grass canopy. Grass was cut with a scissor at 2.5 cm height and fertilizer (1 g/L all purpose fertilizer 20-20-20, available from The Scotts Company, Marysville, Ohio) was applied once per week.
as §1, §2, §3
Kentucky bluegrass sod was purchased from Deak sod farms, Inc. (Union Grove, Wis.). Grass was grown in the greenhouse for 94 days for establishment. Turfgrass was treated with one time foliar application of 50 ppm PBI-524, PBI-429, PBI-696 or PBI-702 alone or in combination with 250 ppm trinexapac-ethyl. The turfgrass was cut every 7 days. Turfgrass quality, turfgrass height, and clip weight were measured on days 7 and 35 after treatment.

[1] = 250 ppm trinexapac-ethyl, 3 days after treatment
[2] = 250 ppm trinexapac-ethyl, 5 days after treatment
[3] = 250 ppm trinexapac-ethyl, 7 days after treatment
[4] = 250 ppm trinexapac-ethyl, 10 days after treatment
[5] = 250 ppm trinexapac-ethyl, 14 days after treatment
[6] = 500 ppm trinexapac-ethyl, 3 days after treatment
[7] = 500 ppm trinexapac-ethyl, 5 days after treatment
[8] = 500 ppm trinexapac-ethyl, 7 days after treatment
[9] = 500 ppm trinexapac-ethyl, 10 days after treatment
[10] = 500 ppm trinexapac-ethyl, 14 days after treatment
[11] = 1000 ppm trinexapac-ethyl, 3 days after treatment
[12] = 1000 ppm trinexapac-ethyl, 5 days after treatment
[13] = 1000 ppm trinexapac-ethyl, 7 days after treatment
[14] = 1000 ppm trinexapac-ethyl, 10 days after treatment
[15] = 1000 ppm trinexapac-ethyl, 14 days after treatment
[16] = 2000 ppm trinexapac-ethyl, 3 days after treatment
[17] = 2000 ppm trinexapac-ethyl, 5 days after treatment
[18] = 2000 ppm trinexapac-ethyl, 7 days after treatment
[19] = 2000 ppm trinexapac-ethyl, 10 days after treatment
[20] = 2000 ppm trinexapac-ethyl, 14 days after treatment
[21] = PBI-429 25-200 ppm, trinexapac-ethyl 250-2000 ppm, alone or combined
[22] = 7 days after treatment, 250 ppm trinexapac-ethyl alone
[23] = 35 days after treatment, 250 ppm trinexapac-ethyl alone

Question: What does the source list for `CCOC(=O)C1CC(=O)C(=C(O)C2CC2)C(=O)C1` (stereo not shown) [trinexapac-ethyl, reference compound]?
Answer: Plant height (tomato; 250 ppm trinexapac-ethyl, 0 days after treatment): 6.4 cm; Growth rate (tomato; [1]): 1.2 cm/day; Plant height (tomato; [1]): 9.9 cm; Growth rate (tomato; [2]): 1.0 cm/day; Plant height (tomato; [2]): 11.9 cm; Growth rate (tomato; [3]): 1.6 cm/day; Plant height (tomato; [3]): 15.1 cm; Growth rate (tomato; [4]): 1.5 cm/day; Plant height (tomato; [4]): 19.6 cm; Growth rate (tomato; [5]): 1.8 cm/day; Leaf number (tomato; [5]): 11.0; Plant height (tomato; [5]): 26.9 cm; Plant height (tomato; 500 ppm trinexapac-ethyl, 0 days after treatment): 6.5 cm; Growth rate (tomato; [6]): 0.9 cm/day; Plant height (tomato; [6]): 9.3 cm; Growth rate (tomato; [7]): 0.8 cm/day; Plant height (tomato; [7]): 10.9 cm; Growth rate (tomato; [8]): 1.2 cm/day; Plant height (tomato; [8]): 13.3 cm; Growth rate (tomato; [9]): 1.4 cm/day; Plant height (tomato; [9]): 17.4 cm; Growth rate (tomato; [10]): 1.8 cm/day; Leaf number (tomato; [10]): 11.0; Plant height (tomato; [10]): 24.4 cm; Plant height (tomato; 1000 ppm trinexapac-ethyl, 0 days after treatment): 6.5 cm; Growth rate (tomato; [11]): 0.7 cm/day; Plant height (tomato; [11]): 8.9 cm; Growth rate (tomato; [12]): 0.7 cm/day; Plant height (tomato; [12]): 10.3 cm; Growth rate (tomato; [13]): 1.0 cm/day; Plant height (tomato; [13]): 12.3 cm; Growth rate (tomato; [14]): 1.2 cm/day; Plant height (tomato; [14]): 15.8 cm; Growth rate (tomato; [15]): 1.8 cm/day; Leaf number (tomato; [15]): 11.0; Plant height (tomato; [15]): 22.8 cm; Plant height (tomato; 2000 ppm trinexapac-ethyl, 0 days after treatment): 6.7 cm; Growth rate (tomato; [16]): 0.6 cm/day; Plant height (tomato; [16]): 7.9 cm; Growth rate (tomato; [17]): 0.6 cm/day; Plant height (tomato; [17]): 9.1 cm; Growth rate (tomato; [18]): 0.8 cm/day; Plant height (tomato; [18]): 10.7 cm; Growth rate (tomato; [19]): 1.0 cm/day; Plant height (tomato; [19]): 13.6 cm; Growth rate (tomato; [20]): 1.2 cm/day; Leaf number (tomato; [20]): 10.8; Plant height (tomato; [20]): 18.3 cm; Tomato leaf number (in words) (tomato; 14 days after treatment, PBI-429 25-200 ppm, trinexapac-ethyl 250-2000 ppm, alone or combined): did not change the tomato leaf number; Tomato growth rate in terms of plant height (in words) (tomato; [21]): inhibited growth rate; Tomato plant height (in words) (tomato; [21]): decreased tomato plant height; Soil moisture (creeping bentgrass; 4 days after treatment): 11.2%; Turfgrass height (creeping bentgrass; 4 days after treatment): 7.3 mm; Turfgrass height (in words) (creeping bentgrass; 4 days after treatment): did not reduce creeping bentgrass height; Soil moisture (creeping bentgrass; 7 days after treatment): 12.7%; Turfgrass height (creeping bentgrass; 7 days after treatment): 6.5 mm; Turf quality (creeping bentgrass; 7 days after treatment): 7.3; Soil moisture (in words) (creeping bentgrass; 7 days after treatment): increase soil moisture; Turfgrass height (in words) (creeping bentgrass; 7 days after treatment): reduced turfgrass height similarly; Soil moisture (creeping bentgrass; 38 days after treatment): 12.4%; Turfgrass height (creeping bentgrass; 38 days after treatment): 6.0 mm; Turf quality (creeping bentgrass; 38 days after treatment): 7.6; Soil moisture (in words) (creeping bentgrass; 38 days after treatment): no longer effective; Turfgrass height (in words) (creeping bentgrass; 38 days after treatment): no longer effective; Clip Weight (Kentucky bluegrass; [22]): 0.5 g; Turfgrass height (Kentucky bluegrass; [22]): 6.0 cm; Turfgrass quality (Kentucky bluegrass; 7 days after treatment, 250 ppm trinexapac-ethyl alone, visual 0-9 scale, 9 best): 6.6; Turfgrass height and clip weight compared to the control (in words) (Kentucky bluegrass; 7 days after treatment, trinexapac-ethyl 250 ppm, PBI-524 or PBI-429 50 ppm, alone or combined): reduced turfgrass height and clip weight compared to the control; Clip Weight (Kentucky bluegrass; [23]): 1.7 g; Turfgrass height (Kentucky bluegrass; [23]): 7.2 cm
